Common to all, as to assay: relative viability (nuclei count vs DMSO), 5 days (fraction); higher = more cells survive
Compound in the test “Salubrinal + Phenformin”: O=C(/C=C/c1ccccc1)NC(NC(=S)Nc1cccc2cccnc12)C(Cl)(Cl)Cl [Salubrinal] + N=C(N)NC(=N)NCCc1ccccc1 [Phenformin] (partner 250 µM)
The method in brief: (§1)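 The day after seeding in 1536-well plates, lung cancer cell lines were treated by pin tool with a single drug, or with a fixed anchor-drug dose together with five library-drug doses (not always all listed) in √10 steps. After 5 days, a combined fix-and-stain solution (final 0.05% Triton X-100, 1% formaldehyde, 1 ug/ml Hoechst) was added. Nuclei counted on 4× images gave relative viability as treated counts over vehicle counts, reported as the median of duplicate plates.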

Compound in test [1]: Cc1ccc2nc(NCCN)c3ncc(C)n3c2c1 + CC(=O)c1c(C)c2cnc(Nc3ccc(N4CCNCC4)cn3)nc2n(C2CCCC2)c1=O [Palbociclib] (partner 0.5 µM)
The method in brief: as §1

Compound in the test “Salubrinal + Navitoclax”: O=C(/C=C/c1ccccc1)NC(NC(=S)Nc1cccc2cccnc12)C(Cl)(Cl)Cl [Salubrinal] + CC1(C)CCC(c2ccc(Cl)cc2)=C(CN2CCN(c3ccc(C(=O)NS(=O)(=O)c4ccc(N[C@H](CCN5CCOCC5)CSc5ccccc5)c(S(=O)(=O)C(F)(F)F)c4)cc3)CC2)C1 [Navitoclax] (partner 0.5 µM)
In short, it runs like this:
as §1

Compound in the test “Salubrinal + Vorinostat”: O=C(/C=C/c1ccccc1)NC(NC(=S)Nc1cccc2cccnc12)C(Cl)(Cl)Cl [Salubrinal] + O=C(CCCCCCC(=O)Nc1ccccc1)NO [Vorinostat] (partner 1 µM)
In short, it runs like this:
as §1

For UMC-11, the relative viability amounted to 0.354 in the test with Salubrinal + Phenformin (first compound 0.08 µM); 0.354 with Salubrinal + Phenformin (first compound 0.253 µM); 0.335 with Salubrinal + Phenformin (first compound 0.8 µM); 0.332 in the test with Salubrinal + Phenformin (first compound 2.53 µM); 0.299 in the test with Salubrinal + Phenformin (first compound 8 µM); 0.34 in test [1] (first compound 0.04 µM). Besides, the relative viability in test [1] (first compound 0.1265 µM) was 0.322; in test [1] (first compound 0.4 µM), 0.322; in test [1] (first compound 1.265 µM) it was 0.317; in test [1] (first compound 4 µM) it was 0.341; with Salubrinal + Navitoclax (first compound 0.08 µM), 0.281; with Salubrinal + Navitoclax (first compound 0.253 µM), 0.301. The relative viability is 0.329 with Salubrinal + Navitoclax (first compound 0.8 µM); 0.318 with Salubrinal + Navitoclax (first compound 2.53 µM); 0.305 with Salubrinal + Navitoclax (first compound 8 µM); 0.349 with Salubrinal + Vorinostat (first compound 0.08 µM); 0.404 with Salubrinal + Vorinostat (first compound 0.253 µM); 0.38 with Salubrinal + Vorinostat (first compound 0.8 µM). Further, the relative viability with Salubrinal + Vorinostat (first compound 2.53 µM) came to 0.334; with Salubrinal + Vorinostat (first compound 8 µM), 0.398.

These data come from the supplement of paper PMC10307832.
